Measurements published in patent EP1718648B1, “TRICYCLIC IMIDAZOPYRIDINES AND INTERMEDIATES FOR THE SYNTHESIS THEREOF” (Nycomed GmbH, priority 2004, dated 2005).

Test system: pentagastrin-stimulated acid secretion of the perfused rat stomach
Test: Testing of the secretion-inhibiting action on the perfused rat stomach
Conditions: Dose 1.0 µmol/kg i.d. (intraduodenal), in vivo; anesthetized CD rat, female; pentagastrin 1 µg/kg i.v. continuous infusion
Description: The compounds of the formula 2 according to the invention investigated in the model mentioned below have been provided with letters which correspond to the letters of these compounds in the examples.
In Table A which follows, the influence of the compounds of the formula 2 according to the invention on the pentagastrin-stimulated acid secretion of the perfused rat stomach after intraduodenal administration in vivo is shown. Table A
The abdomen of anesthetized rats (CD rat, female, 200-250 g; 1.5 g/kg i.m. urethane) was opened after tracheotomy by a median upper abdominal incision and a PVC catheter was fixed transorally in the esophagus and another via the pylorus such that the ends of the tubes just projected into the gastric lumen. The catheter leading from the pylorus led outward into the right abdominal wall through a side opening.
After thorough rinsing (about 50-100 ml), warm (37°C) physiological NaCl solution was continuously passed through the stomach (0.5 ml/min, pH 6.8-6.9; Braun-Unita I). The pH (pH meter 632, glass electrode EA 147; φ = 5 mm, Metrohm) and, by titration with a freshly prepared 0.01 N NaOH solution to pH 7 (Dosimat 665 Metrohm), the secreted HCl were determined in the effluent in each case collected at an interval of 15 minutes.
The gastric secretion was stimulated by continuous infusion of 1 µg/kg (=1.65 ml/h) of i.v. pentagastrin (left femoral vein) about 30 min after the end of the operation (i.e. after determination of 2 preliminary fractions). The substances to be tested were administered intraduodenally in a 2.5 ml/kg liquid volume 60 min after the start of the continuous pentagastrin infusion.
The body temperature of the animals was kept at a constant 37.8-38°C by infrared irradiation and heat pads (automatic, stepless control by means of a rectal temperature sensor).

**Q.** How did the “Inhibition of acid secretion (%)” value turn out when `CNC(=O)c1cn2c(C)c(C)nc2c2c1CCC(c1ccccc1)N2` (stereo not drawn) [c, 2,3-Dimethyl-8-phenyl-6,7,8,9-tetrahydro-1,3a,9-triaza-cyclopenta[a]naphthalene-5-carboxylic Acid Methylamide] was run?
**A.** > 50%

**Q.** Which “Inhibition of acid secretion (%)” value does the source give for `Cc1nc2c3c(c(C(=O)N(C)C)cn2c1C)CCC(c1ccccc1)N3` (stereo not drawn) [e, 2,3-Dimethyl-8-phenyl-6,7,8,9-tetrahydro-1,3a,9-triaza-cyclopenta[a]naphthalene-5-carboxylic Acid Dimethylamide] here?
**A.** > 50%

**Q.** Which “Inhibition of acid secretion (%)” value does the source give for `Cc1nc2c3c(c(C(N)=O)cn2c1C)CCC(c1ccccc1)N3` (stereo not drawn) [f, 2,3-Dimethyl-8-phenyl-6,7,8,9-tetrahydro-1,3a,9-triaza-cyclopenta[a]naphthalene-5-carboxylic Acid Amide] here?
**A.** > 50%

**Q.** `Cc1nc2c3c(c(C(=O)N4CCCC4)cn2c1C)CCC(c1ccccc1)N3` (stereo not drawn) [h, 1-(2,3-Dimethyl-8-phenyl-6,7,8,9-tetrahydro-1,3a,9-triaza-cyclopenta[a]naphthalen-5-yl)-1-pyrrolidin-1-yl-methanone] was tested. Which “Inhibition of acid secretion (%)” value did it give?
**A.** > 50%

**Q.** For `Cc1nc2c3c(c(C(=O)N(C)C)cn2c1C)CC[C@@H](c1ccccc1)N3` [j, (8S)-2,3-Dimethyl-8-phenyl-6,7,8,9-tetrahydro-1,3a,9-triaza-cyclopenta[a]naphthalene-5-carboxylic Acid Dimethylamide], which “Inhibition of acid secretion (%)” value is on record?
**A.** > 50%

**Q.** How did the “Inhibition of acid secretion (%)” value turn out when `Cc1nc2c3c(c(C(=O)N(C)C)cn2c1C)CC[C@H](c1ccccc1)N3` [k, (8R)-2,3-Dimethyl-8-phenyl-6,7,8,9-tetrahydro-1,3a,9-triaza-cyclopenta[a]naphthalene-5-carboxylic Acid Dimethylamide] was run?
**A.** < 50%

**Q.** For `CNC(=O)c1cn2c(C)c(C)nc2c2c1CC[C@H](c1ccccc1)N2` [l, (8R)-2,3-Dimethyl-8-phenyl-6,7,8,9-tetrahydro-1,3a,9-triaza-cyclopenta[a]naphthalene-5-carboxylic Acid Methylamide], which “Inhibition of acid secretion (%)” value is on record?
**A.** < 50%

**Q.** Which “Inhibition of acid secretion (%)” value does the source give for `CNC(=O)c1cn2c(C)c(C)nc2c2c1CC[C@@H](c1ccccc1)N2` [m, (8S)-2,3-Dimethyl-8-phenyl-6,7,8,9-tetrahydro-1,3a,9-triaza-cyclopenta[a]naphthalene-5-carboxylic Acid Methylamide] here?
**A.** > 50%

**Q.** How did the “Inhibition of acid secretion (%)” value turn out when `Cc1nc2c3c(c(C(=O)NC4CC4)cn2c1C)CC[C@H](c1ccccc1)N3` [n, (8R)-2,3-Dimethyl-8-phenyl-6,7,8,9-tetrahydro-1,3a,9-triaza-cyclopenta[a]naphthalene-5-carboxylic Acid Cyclopropylamide] was run?
**A.** < 50%

**Q.** For `Cc1nc2c3c(c(C(=O)NC4CC4)cn2c1C)CC[C@@H](c1ccccc1)N3` [o, (8S)-2,3-Dimethyl-8-phenyl-6,7,8,9-tetrahydro-1,3a,9-triaza-cyclopenta[a]naphthalene-5-carboxylic Acid Cyclopropylamide], which “Inhibition of acid secretion (%)” value is on record?
**A.** > 50%

**Q.** `Cc1nc2c3c(c(C(N)=O)cn2c1C)CC[C@H](c1ccccc1)N3` [p, (8R)-2,3-Dimethyl-8-phenyl-6,7,8,9-tetrahydro-1,3a,9-triaza-cyclopenta[a]naphthalene-5-carboxylic Acid Amide] was tested. Which “Inhibition of acid secretion (%)” value did it give?
**A.** < 50%

**Q.** For `Cc1nc2c3c(c(C(N)=O)cn2c1C)CC[C@@H](c1ccccc1)N3` [q, (8S)-2,3-Dimethyl-8-phenyl-6,7,8,9-tetrahydro-1,3a,9-triaza-cyclopenta[a]naphthalene-5-carboxylic Acid Amide], which “Inhibition of acid secretion (%)” value is on record?
**A.** >50%
